Read-outs that look alike come from different tables or passages of the source.
Biological target: T1, cloned human dopamine D3 receptors (Homo sapiens, UniProt P35462)
T1 construct: expressed in transfected cells; membrane homogenate
Test: [N-Methyl-3H]Spiroperidol binding to cloned human dopamine D3 receptors (Protocol 1)
How it was run: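 Radioligand displacement with [N-methyl-3H]spiroperidol used a physiological-salt Tris buffer (0.05 M, pH 7.7; NaCl 120 mM, KCl 5 mM, CaCl2 2 mM, MgCl2 1 mM) and membranes of a high-expressing stable CHO clone carrying human D3. Total ligand concentration came from measured added CPM; 0.1% ascorbic acid was optional for oxidizable compounds.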

[1] = the 14th table, read-out: D3 Ki
[2] = the 22nd table, read-out: D3 Ki
[3] = the 21st table, read-out: D3 Ki
[4] = the 20th table, read-out: D3 Ki
[5] = the 13th table, unit inferred, read-out: D3Ki
[6] = the 18th table, read-out: D3 Ki
[7] = the 23rd table, read-out: D3 Ki
[8] = the 16th table, read-out: D3 Ki
[9] = the 17th table, read-out: D3 Ki
[10] = the 15th table, read-out: D3 Ki

T1 sequence (P35462 whole entry): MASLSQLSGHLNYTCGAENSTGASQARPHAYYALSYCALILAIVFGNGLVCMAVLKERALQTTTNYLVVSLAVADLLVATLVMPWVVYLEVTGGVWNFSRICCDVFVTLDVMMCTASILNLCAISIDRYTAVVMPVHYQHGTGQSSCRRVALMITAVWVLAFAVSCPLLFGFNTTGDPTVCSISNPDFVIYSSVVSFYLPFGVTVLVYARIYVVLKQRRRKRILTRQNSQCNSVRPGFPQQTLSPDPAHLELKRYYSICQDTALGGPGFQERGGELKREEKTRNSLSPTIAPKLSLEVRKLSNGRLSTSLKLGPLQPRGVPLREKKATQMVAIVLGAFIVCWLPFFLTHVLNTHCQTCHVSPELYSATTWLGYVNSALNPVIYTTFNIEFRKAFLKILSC

O=C(NC/C=C\CN1CCN(c2csc3cc(C(F)(F)F)ccc23)CC1)C1CCCC1 [compound 826334]
Ki (read-out: D3K1): 21 nM

COc1cc(OC)cc(C(=O)NCCCCCN2CCN(c3csc4cc(C(F)(F)F)ccc34)CC2)c1 [compound 826766]
Ki (read-out: D3K1): 11 nM
Ki [1]: 11 nM

O=C(NC(CO)CCCN1CCN(c2csc3cc(C(F)(F)F)ccc23)CC1)c1ccc2c(c1)S(=O)(=O)c1ccccc1C2=O (stereo not drawn) [compound 815685]
Ki (Table 2, read-out: D3K1): 186 nM
Ki (read-out: D3K1): 186 nM
Ki [1]: 186 nM

O=C(NCCCCN1CCN(c2nn(C(=O)c3ccc(C(F)(F)F)cc3)c3ccsc23)CC1)c1ccc(C(F)(F)F)cc1 [compound 825149]
Ki [2]: 164 nM

O=C(NCCCCN1CCN(c2c(-c3ccccc3)sc3cc(F)ccc23)CC1)c1ccc(Br)cc1 [compound 815874]
Ki (Table 2, read-out: D3K1): 282 nM

C[C@@H]1CN(c2csc3cc(C(F)(F)F)ccc23)C[C@H](C)N1CCCCNC(=O)c1ccc(C(F)(F)F)cc1 [compound 826936]
Ki [3]: 96.1 nM

O=C(NCc1ccoc1CN1CCN(c2csc3cc(F)ccc23)CC1)c1cccnc1Cl [compound 825853]
Ki [4]: 237 nM

O=C(NCCCCN1CCN(c2c(Cl)sc3cc(F)ccc23)CC1)c1c(F)cc(F)cc1F [compound 815054]
Ki (read-out: D3K1): 7.7 nM

C[C@@H]1CN(c2csc3cc(F)ccc23)C[C@H](C)N1CCCCNC(=O)c1ccc2cc[nH]c2c1 [compound 826965]
Ki [3]: 25.6 nM

COc1ccc(C(=O)N[C@@H](CO)CCCN2CCN(c3csc4cc(C(F)(F)F)ccc34)CC2)cc1OC [compound 815665]
Ki (read-out: D3K1): 163 nM
Ki [1]: 163 nM

Cc1ccccc1C(=O)NCCCCN1CCN(c2n[nH]c3ccsc23)CC1 [compound 825161]
Ki [2]: 244 nM

CS(=O)(=O)c1ccc(CC(=O)NCCCCN2CCCN(c3csc4cc(F)ccc34)CC2)cc1 [S982511]
Ki [5]: 12 nM

O=C(NCc1sccc1CN1CCN(c2csc3cc(F)ccc23)CC1)c1cc2sccc2s1 [compound 826320]
Ki [6]: 75.3 nM

OC1CCC(NCC2CC2CN2CCN(c3csc4cc(C(F)(F)F)ccc34)CC2)CC1 (racemic) [832390FH]
Ki [7]: 21.8 nM

O=C(NCc1sccc1CN1CCN(c2csc3cc(F)ccc23)CC1)c1n[nH]c2ccccc12 [compound 826329]
Ki [6]: 14 nM

O=C(NCc1sccc1CN1CCN(c2csc3cc(F)ccc23)CC1)c1c[nH]c2ccccc12 [compound 826325]
Ki [6]: 54 nM

NS(=O)(=O)c1ccc(C(=O)NCCCCN2CCCN(c3csc4cc(F)ccc34)CC2)cc1 [compound 817276]
Ki (Table 2, read-out: D3K1): 2.44 nM
Ki [8]: 2.44 nM

O=C(NCC1CC1CN1CCC(c2noc3ccsc23)CC1)Oc1ccc(F)cc1 (stereo not drawn) [compound 831697]
Ki (D3 Ki (nM), the 25th table): 8.35 nM

COc1ccc(C(=O)N(Cc2ccccc2)CC2CC2CN2CCCN(c3csc4cc(F)ccc34)CC2)cc1 (racemic) [compound 830394]
Ki [9]: 10.7 nM

COc1ccccc1C(=O)NCCCN1CCCN(c2csc3cc(F)ccc23)CC1 [compound 827141]
Ki (Table 2, read-out: D3K1): 99 nM
Ki [8]: 99 nM

O=C(NCCCCN1CCN(c2c(Cl)sc3cc(C(F)(F)F)ccc23)CC1)c1ccc2c(c1)OCO2 [compound 815563]
Ki (read-out: D3K1): 21 nM

Cc1ccc(OC(=O)NCC2CC2CN2CCC(c3noc4ccsc34)CC2)cc1 (stereo not drawn) [compound 831698]
Ki (D3 Ki (nM), the 25th table): 29.4 nM

Cc1nn(C)c2sc(C(=O)NCc3sccc3CN3CCN(c4csc5cc(F)ccc45)CC3)cc12 [compound 826321]
Ki [6]: 41.3 nM

O=C(NCc1sccc1CN1CCN(c2csc3cc(F)ccc23)CC1)c1ccc(OC(F)(F)F)cc1 [compound 826298]
Ki [6]: 59 nM

O=C(NCCCN1CCCN(c2csc3cc(F)ccc23)CC1)c1cccc2ccccc12 [compound 827138]
Ki (Table 2, read-out: D3K1): 166 nM
Ki [8]: 166 nM

CCCc1ccc(C(=O)NCCCCN2C3CCC2CC(c2noc4cc(F)ccc24)C3)cc1 (stereo not drawn) [compound 816341]
Ki [10]: 50.9 nM

O=C(NCCCCN1C2CCC1CC(c1noc3ccccc13)C2)c1cccc2ccccc12 (stereo not drawn) [compound 816538]
Ki [10]: 178 nM

O=C(NCc1ccoc1CN1CCN(c2csc3cc(F)ccc23)CC1)c1ccc(-c2ccccc2)cc1 [compound 825848]
Ki [4]: 250 nM

O=C(NCCCCN1CCCN(c2csc3cc(F)ccc23)CC1)c1ccc2nonc2c1 [compound 826699]
Ki (Table 2, read-out: D3K1): 6.73 nM
Ki [8]: 6.73 nM

C[C@@H]1CN(c2csc3cc(F)ccc23)C[C@H](C)N1CCCCNC(=O)c1cccc(Cl)c1 [compound 827047]
Ki [3]: 65.1 nM

O=C(NCCCCN1CCCN(c2csc3cc(F)ccc23)CC1)c1ccccc1F [compound 822195]
Ki [5]: 4.7 nM

Cc1ccc2cc(C(=O)NCCCCN3CCCN(c4csc5cc(F)ccc45)CC3)oc2c1 [compound 827130]
Ki (Table 2, read-out: D3K1): 15.4 nM
Ki [8]: 15.4 nM

CSc1nsc(SC)c1C(=O)NCCCCN1CCCN(c2csc3cc(F)ccc23)CC1 [S981838]
Ki [5]: 6 nM

O=C(NCCCCCN1CCN(c2csc3cc(C(F)(F)F)ccc23)CC1)c1c[nH]c2ccccc12 [compound 826797]
Ki (read-out: D3K1): 36.4 nM
Ki [1]: 36.4 nM

O=C(NCCCN1CCCN(c2csc3cc(F)ccc23)CC1)c1ccc2ccccc2c1 [compound 827139]
Ki (Table 2, read-out: D3K1): 131 nM
Ki [8]: 131 nM

c1cc2onc(C3CCN(CC4CC4CN4CCC(c5noc6ccsc56)CC4)CC3)c2s1 (racemic) [831205DA]
Ki [7]: 6.38 nM

O=C(NC/C=C/CN1CCN(c2csc3cc(C(F)(F)F)ccc23)CC1)C1CCCCC1 [compound 827717]
Ki (read-out: D3K1): 9.5 nM

Cc1ccc(C(=O)NCC2CC2CN2CCCN(c3csc4cc(F)ccc34)CC2)cc1 (racemic) [compound 830403]
Ki [9]: 59.9 nM

COc1cccc(C(=O)NC/C=C\CN2CCN(c3csc4cc(C(F)(F)F)ccc34)CC2)c1 [compound 826344]
Ki (read-out: D3K1): 29 nM

CC[C@H]1CC[C@H](NC[C@@H]2C[C@H]2CN2CCN(c3c(Cl)sc4cc(C(F)(F)F)ccc34)CC2)CC1 [compound 832329]
Ki [7]: 151 nM

O=C(NC/C=C\CN1CCN(c2csc3cc(C(F)(F)F)ccc23)CC1)c1cccc(F)c1 [compound 826342]
Ki (read-out: D3K1): 47 nM

O=C(NCCCCCN1CCCN(c2csc3cc(F)ccc23)CC1)c1sccc1-n1cccc1 [S984499]
Ki [5]: 28.5 nM

Cn1c(C(=O)NCCCCCCN2CCN(c3csc4cc(C(F)(F)F)ccc34)CC2)cc2ccccc21 [compound 826739]
Ki (read-out: D3K1): 2.1 nM
Ki [1]: 2.1 nM

O=C(NCCCCN1CCCN(c2csc3cc(C(F)(F)F)ccc23)CC1)c1ccc2ccccc2c1 [S980632]
Ki [5]: 23 nM

CCC1CCCC1NC[C@@H]1C[C@H]1CN1CCN(c2csc3cc(C(F)(F)F)ccc23)CC1 (mixture of isomers) [compound 832278]
Ki [7]: 19 nM

O=C(NCCCCN1CCN(c2noc3ccsc23)CC1)c1ccc(C(F)(F)F)cc1 [compound 829677]
Ki [2]: 96.6 nM

O=C(NCCCCN1CCCN(c2csc3cc(F)ccc23)CC1)c1cccnc1Oc1ccccc1 [S981834]
Ki [5]: 1.1 nM

CN(C)c1ccc(C(=O)c2ccccc2C(=O)NCCCCN2CCCN(c3csc4cc(F)ccc34)CC2)cc1 [compound 817263]
Ki (Table 2, read-out: D3K1): 331 nM
Ki [8]: 331 nM

COc1cc(OC)cc(C(=O)NCCCCN2[C@H](C)CN(c3csc4cc(F)ccc34)C[C@@H]2C)c1 [compound 827048]
Ki [3]: 317 nM

CSc1ncccc1C(=O)N[C@@H](CO)CCCN1CCN(c2csc3cc(C(F)(F)F)ccc23)CC1 [compound 815681]
Ki (Table 2, read-out: D3K1): 261 nM
Ki (read-out: D3K1): 261 nM
Ki [1]: 261 nM

CC(C)(C)c1ccc(S(=O)(=O)NCC2CC2CN2CCN(c3csc4cc(C(F)(F)F)ccc34)CC2)cc1 (racemic) [compound 831591]
Ki (the 24th table, read-out: D3 Ki): 93.3 nM
